Measured values reported in US20170129916A1, “NOVEL BETULINIC PROLINE IMIDAZOLE DERIVATIVES AS HIV INHIBITORS” (HETERO RESEARCH FOUNDATION, priority 2014, published 2017).

Experiment: Single dose oral pharmacokinetic study
Assay type: in vivo
Settings: mouse, mice, 30 mg/kg, plasma; for AUC(0-t): read-out: Mice oral PK @30 mg/kg AUC 0-t; for Cmax: read-out: Mice oral PK @30 mg/kg Cmax
Method: The test item was administered through oral route to animals (rat/mice) at 30 mg/kg dose in a suitable vehicle at 10 ml/kg dose volume. Blood samples (˜50 uL at each time point) were collected from retro-orbital plexus using K3 EDTA as anticoagulant in eppend; orf tubes at defined time intervals under light ether anesthesia. The samples were centrifuged at 3500×g to separate plasma and stored at −80° C. until analysis.
Sample analysis: Test samples were analyzed using LC-MS-MS after developing fit-for-purpose method for each of test compound.

Structure (SMILES)	AUC(0-t)	Cmax
C=C(C)[C@@H]1CC[C@]2(C(=O)N3CCC[C@H]3c3ncc(-c4ccc(Cl)cc4)[nH]3)CC[C@]3(C)[C@H](CC[C@@H]4[C@@]5(C)CC[C@H](OC(=O)[C@H]6C[C@@H](C(=O)O)C6(C)C)C(C)(C)[C@@H]5CC[C@]43C)[C@@H]12 [Compound 19, (1R,3S)-3-((((1R,3aS,5aR,5bR,7aR,9S,11aR,11bR,13aR,13bR)-3a-((S)-2-(5-(4-chlorophenyl)-1H-imidazol-2-yl)pyrrolidine-1-carbonyl)-5a,5b,8,8,11a-pentamethyl-1-(prop-1-en-2-yl)icosahydro-1H-cyclopenta[a]chrysen-9-yl)oxy)carbonyl)-2,2-dimethylcyclobutane-1-carboxylic acid]	183 µg·h/mL	7500 ng/mL
Cc1nnc(C(C)C)n1C1CC2CCC(C1)N2C(=O)[C@]12CC[C@@H](C3(C)CC3)[C@@H]1[C@H]1CC[C@@H]3[C@@]4(C)CC[C@H](OC(=O)[C@H]5C[C@@H](C(=O)O)C5(C)C)C(C)(C)[C@@H]4CC[C@@]3(C)[C@]1(C)CC2 (stereo partly drawn) [Compound 60, (1R,3S)-3-((((1R,3aS,5aR,5bR,7aR,9S,11aR,11bR,13aR,13bR)-3a-((1R,3R,5S)-3-(3-isopropyl-5-methyl-4H-1,2,4-triazol-4-yl)-8-azabicyclo[3.2.1]octane-8-carbonyl)-5a,5b,8,8,11a-pentamethyl-1-(1-methylcyclopropyl)icosahydro-1H-cyclopenta[a]chrysen-9-yl)oxy)carbonyl)-2,2-dimethylcyclobutane-1-carboxylic acid]	295 µg·h/mL	6520 ng/mL
Cc1nnc(C(C)C)n1C1CC2CCC(C1)N2C(=O)[C@]12CC[C@@H](C3(C)CC3)[C@@H]1[C@H]1CC[C@@H]3[C@@]4(C)CC[C@H](OC(=O)CC(C)(C)C(=O)O)C(C)(C)[C@@H]4CC[C@@]3(C)[C@]1(C)CC2 (stereo partly drawn) [Compound 71, 4-(((1R,3aS,5aR,5bR,7aR,9S,11aR,11bR,13aR,13bR)-3a-((R,3R,5S)-3-(3-isopropyl-5-methyl-4H-1,2,4-triazol-4-yl)-8-azabicyclo[3.2.1]octane-8-carbonyl)-5a,5b,8,8,11a-pentamethyl-1-(1-methylcyclopropyl)icosahydro-1H-cyclopenta[a]chrysen-9-yl)oxy)-2,2-dimethyl-4-oxobutanoic acid]	298 µg·h/mL	15800 ng/mL
C=C(C)[C@@H]1CC[C@]2(C(=O)N3CCC[C@H]3c3ncc(-c4ccc(F)cc4)[nH]3)CC[C@]3(C)[C@H](CC[C@@H]4[C@@]5(C)CC[C@H](OC(=O)CC(C)(C)CC(=O)O)C(C)(C)[C@@H]5CC[C@]43C)[C@@H]12 [Compound 41, 5-(((1R,3aS,5aR,5bR,7aR,9S,11aR,11bR,13aR,13bR)-3a-((S)-2-(5-(4-fluorophenyl)-1H-imidazol-2-yl)pyrrolidine-1-carbonyl)-5a,5b,8,8,11a-pentamethyl-1-(prop-1-en-2-yl)icosahydro-1H-cyclopenta[a]chrysen-9-yl)oxy)-3,3-dimethyl-5-oxopentanoic acid]	258 µg·h/mL	14500 ng/mL
C=C(C)[C@@H]1CC[C@]2(C(=O)N3C4CCC3CC(n3c(C)nnc3C(C)C)C4)CC[C@]3(C)[C@H](CC[C@@H]4[C@@]5(C)CC[C@H](OC(=O)CC(C)(C)C(=O)O)C(C)(C)[C@@H]5CC[C@]43C)[C@@H]12 (stereo partly drawn) [Compound 49, 4-(((1R,3aS,5aR,5bR,7aR,9S,11aR,11bR,13aR,13bR)-3a-((1R,3R,5S)-3-(3-isopropyl-5-methyl-4H-1,2,4-triazol-4-yl)-8-azabicyclo[3.2.1]octane-8-carbonyl)-5a,5b,8,8,11a-pentamethyl-1-(prop-1-en-2-yl)icosahydro-1H-cyclopenta[a]chrysen-9-yl)oxy)-2,2-dimethyl-4-oxobutanoic acid]	111 µg·h/mL	10800 ng/mL
C=C(C)[C@@H]1CC[C@]2(C(=O)N3CCC[C@H]3c3ncc(-c4ccc(C(F)(F)F)cc4)[nH]3)CC[C@]3(C)[C@H](CC[C@@H]4[C@@]5(C)CC[C@H](OC(=O)[C@H]6C[C@@H](C(=O)O)C6(C)C)C(C)(C)[C@@H]5CC[C@]43C)[C@@H]12 [Compound 6, (1R,3S)-2,2-dimethyl-3-((((1R,3aS,5aR,5bR,7aR,9S,11aR,11bR,13aR,13bR)-5a,5b,8,8,11a-pentamethyl-1-(prop-1-en-2-yl)-3a-((S)-2-(5-(4-(trifluoromethyl)phenyl)-1H-imidazol-2-yl)pyrrolidine-1-carbonyl)icosahydro-1H-cyclopenta[a]chrysen-9-yl)oxy)carbonyl)cyclobutane-1-carboxylic acid]	93.4 µg·h/mL	3100 ng/mL
Cc1nnc(C(C)C)n1C1CCN(C(=O)[C@]23CC[C@@H](C4(C)CC4)[C@@H]2[C@H]2CC[C@@H]4[C@@]5(C)CC[C@H](OC(=O)[C@H]6C[C@@H](C(=O)O)C6(C)C)C(C)(C)[C@@H]5CC[C@@]4(C)[C@]2(C)CC3)CC1 [Compound 58, (1R,3S)-3-((((1R,3aS,5aR,5bR,7aR,9S,11aR,11bR,13aR,13bR)-3a-(4-(3-isopropyl-5-methyl-4H-1,2,4-triazol-4-yl)piperidine-1-carbonyl)-5a,5b,8,8,11a-pentamethyl-1-(1-methylcyclopropyl)icosahydro-1H-cyclopenta[a]chrysen-9-yl)oxy)carbonyl)-2,2-dimethylcyclobutane-1-carboxylic acid]	104 µg·h/mL	3050 ng/mL
Cc1nnc(C(C)C)n1C1CCN(C(=O)[C@]23CC[C@@H](C4(C)CC4)[C@@H]2[C@H]2CC[C@@H]4[C@@]5(C)CC[C@H](OC(=O)CC(C)(C)C(=O)O)C(C)(C)[C@@H]5CC[C@@]4(C)[C@]2(C)CC3)CC1 [Compound 69, 4-(((1R,3aS,5aR,5 bR,7aR,9S,11aR,11bR,13aR,13bR)-3a-(4-(3-isopropyl-5-methyl-4H-1,2,4-triazol-4-yl)piperidine-1-carbonyl)-5a,5b,8,8,11a-pentamethyl-1-(1-methylcyclopropyl)icosahydro-1H-cyclopenta[a]chrysen-9-yl)oxy)-2,2-dimethyl-4-oxobutanoic acid]	238 µg·h/mL	16700 ng/mL
COCCOc1ccc(-c2cnc([C@@H]3CCCN3C(=O)[C@]34CC[C@@H](C5(C)CC5)[C@@H]3[C@H]3CC[C@@H]5[C@@]6(C)CC[C@H](OC(=O)[C@H]7C[C@@H](C(=O)O)C7(C)C)C(C)(C)[C@@H]6CC[C@@]5(C)[C@]3(C)CC4)[nH]2)cc1 [Compound 52, (1R,3S)-3-((((1R,3aS,5aR,5bR,7aR,9S,11aR,11bR,13aR,13bR)-3a-((S)-2-(5-(4-(2-methoxyethoxy)phenyl)-1H-imidazol-2-yl)pyrrolidine-1-carbonyl)-5a,5b,8,8,11a-pentamethyl-1-(1-methylcyclopropyl)icosahydro-1H-cyclopenta[a]chrysen-9-yl)oxy)carbonyl)-2,2-dimethylcyclobutane-1-carboxylic acid]	273 µg·h/mL	9610 ng/mL
C=C(C)[C@@H]1CC[C@]2(C(=O)N3C4CCC3CC(n3c(C)nnc3C(C)C)C4)CC[C@]3(C)[C@H](CC[C@@H]4[C@@]5(C)CC[C@H](OC(=O)[C@H]6C[C@@H](C(=O)O)C6(C)C)C(C)(C)[C@@H]5CC[C@]43C)[C@@H]12 (stereo partly drawn) [Compound 38, (1R,3S)-3-((((1R,3aS,5aR,5bR,7aR,9S,11aR,11bR,13aR,13bR)-3a-((1R,3R,5S)-3-(3-isopropyl-5-methyl-4H-1,2,4-triazol-4-yl)-8-azabicyclo[3.2.1]octane-8-carbonyl)-5a,5b,8,8,11a-pentamethyl-1-(prop-1-en-2-yl)icosahydro-1H-cyclopenta[a]chrysen-9-yl)oxy)carbonyl)-2,2-dimethylcyclobutane-1-carboxylic acid]	127 µg·h/mL	7350 ng/mL
CC1([C@@H]2CC[C@]3(C(=O)N4CCC[C@H]4c4ncc(-c5ccc[n+]([O-])c5)[nH]4)CC[C@]4(C)[C@H](CC[C@@H]5[C@@]6(C)CC[C@H](OC(=O)[C@H]7C[C@@H](C(=O)O)C7(C)C)C(C)(C)[C@@H]6CC[C@]54C)[C@@H]23)CC1 [Compound 53, 3-(2-((S)-1-((1R,3aS,5aR,5bR,7aR,9S,11aR,11bR,13aR,13bR)-9-(((1S,3R)-3-carboxy-2,2-dimethylcyclobutane-1-carbonyl)oxy)-5a,5b,8,8,11a-pentamethyl-1-(1-methylcyclopropyl)icosahydro-1H-cyclopenta[a]chrysene-3a-carbonyl)pyrrolidin-2-yl)-1H-imidazol-5-yl)pyridine-1-oxide]	471 µg·h/mL	14700 ng/mL
C=C(C)[C@@H]1CC[C@]2(C(=O)N3CCC[C@H]3c3ncc(-c4ccccn4)[nH]3)CC[C@]3(C)[C@H](CC[C@@H]4[C@@]5(C)CC[C@H](OC(=O)CC(C)(C)C(=O)O)C(C)(C)[C@@H]5CC[C@]43C)[C@@H]12 [Compound 39, 2,2-dimethyl-4-oxo-4-(((1R,3aS,5aR,5bR,7aR,9S,11aR,11bR,13aR,13bR)-5a,5b,8,8,11a-pentamethyl-1-(prop-1-en-2-yl)-3a-((S)-2-(5-(pyridin-2-yl)-1H-imidazol-2-yl)pyrrolidine-1-carbonyl)icosahydro-1H-cyclopenta[a]chrysen-9-yl)oxy)butanoic acid]	80.9 µg·h/mL	5690 ng/mL
